Where two headings read alike, the source gives them in different places.
Assays:
[1] = Amcenestrant PK parameters at steady state in patients; type: in vivo, human; details: for AUC(0-t) / Cmax / Tmax / concentration at 0 h: human, plasma, oral; for Tmax: read-out: Tmax (median); for concentration at 0 h: read-out: Ctrough (arithmetic mean)
[2] = Published palbociclib exposure data (A5481001, A5481003, A5481008, Ibrance label); type: in vivo; details: human, plasma; A5481001, A5481003, A5481008, N=57; read-out: AUC0-24 h, reference: geometric mean of individual studies weighed by number of subjects (converted)
[3] = cited from earlier work
[4] = cited from earlier work; remark: listed apart in the source
[5] = pooled analysis, 1666 patients treated with palbociclib; cited from earlier work
[6] = amcenestrant 200 mg with palbociclib, steady state Day 21, N=8
[7] = amcenestrant 400 mg monotherapy, steady state, N=13
[8] = amcenestrant 400 mg with palbociclib, steady state Day 21, N=5

Q: Which “CLss/F (arithmetic mean)” value [1, 6] does the source give for `O=C(O)c1ccc2c(c1)CCCC(c1ccc(Cl)cc1Cl)=C2c1ccc(O[C@H]2CCN(CCCF)C2)cc1` [Amcenestrant, 6-(2,4-dichlorophenyl)-5-[4-[(3S)-1-(3-fluoropropyl)pyrrolidin-3-yl]oxyphenyl]-8,9-dihydro-7H-benzo[7]annulene-2-carboxylic acid] here?
A: Its value is 10.7 L/h.

Q: And the “Ctrough [geometric mean]” value [1, 6]?
A: The value was “[215] ng/mL”.

Q: And the “CLss/F (arithmetic mean)” value ([1]; amcenestrant 200 mg with palbociclib, steady state Day 21, N=8, listed as amcenestrant)?
A: The value was 10.7 ± 3.38 L/h.

Q: And the “CLss/F (arithmetic mean)” value [1, 7]?
A: The value was 10.6 L/h.

Q: And the “Ctrough [geometric mean]” value [1, 7]?
A: The value was “[466] ng/mL”.

Q: What about the “CLss/F (arithmetic mean)” value ([1]; amcenestrant 400 mg monotherapy, steady state, N=13, listed as amcenestrant) of the same compound?
A: The value was 10.6 ± 4.35 L/h.

Q: And the “systemic clearance higher than after amcenestrant 400 mg QD single agent” value ([1]; amcenestrant 400 mg with palbociclib, Day 21)?
A: Its value is 28%.

Q: What about the “CLss/F (arithmetic mean)” value [1, 8] of the same compound?
A: Its value is 13.5 L/h.

Q: And the “Ctrough [geometric mean]” value [1, 8]?
A: The value was “[248] ng/mL”.

Q: What about the “CLss/F (arithmetic mean)” value ([1]; amcenestrant 400 mg with palbociclib, steady state Day 21, N=5, listed as amcenestrant) of the same compound?
A: The value was 13.5 ± 5.36 L/h.

Q: What about the AUC(0-t) ([1]; female, 200 mg, amcenestrant 200 mg with palbociclib, steady state Day 21, N=8, read-out: AUC0-24h (arithmetic mean) (converted)) of the same compound?
A: Its AUC(0-t) is 20600 ng·h/mL.

Q: What about the Cmax ([1]; female, 200 mg, amcenestrant 200 mg with palbociclib, steady state Day 21, N=8, read-out: Cmax (arithmetic mean)) of the same compound?
A: The Cmax was 2060 ng/mL.

Q: What about the Tmax ([1]; female, 200 mg) of the same compound?
A: Its Tmax is 4.88 h.

Q: And the AUC(0-t) ([1]; female, 400 mg, amcenestrant 400 mg with palbociclib, steady state Day 21, N=5, read-out: AUC0-24h (arithmetic mean) (converted))?
A: The AUC(0-t) was 33100 ng·h/mL.

Q: And the AUC(0-t) ([1]; female, 400 mg, amcenestrant 400 mg with palbociclib, steady state Day 21, N=5, read-out: AUC0-24h [geometric mean])?
A: The AUC(0-t) was 31400 ng·h/mL.

Q: What about the Cmax ([1]; female, 400 mg, amcenestrant 400 mg with palbociclib, steady state Day 21, N=5, read-out: Cmax (arithmetic mean)) of the same compound?
A: The Cmax was 4350 ng/mL.

Q: And the Cmax ([1]; female, 400 mg, amcenestrant 400 mg with palbociclib, steady state Day 21, N=5, read-out: Cmax [geometric mean])?
A: Its Cmax is 3450 ng/mL.

Q: What about the Tmax ([1]; female, 400 mg) of the same compound?
A: Its Tmax is 4 h.

Q: What about the concentration at 0 h ([1]; female, amcenestrant 200 mg with palbociclib, steady state Day 21, N=8) of the same compound?
A: Its concentration at 0 h is 226 ng/mL.

Q: And the concentration at 0 h ([1]; female, amcenestrant 400 mg with palbociclib, steady state Day 21, N=5)?
A: The concentration at 0 h was 280 ng/mL.

Q: What about the AUC(0-t) ([1]; 200 mg, amcenestrant 200 mg with palbociclib, steady state Day 21, N=8, read-out: AUC0-24h [geometric mean]) of the same compound?
A: The AUC(0-t) was 19500 ng·h/mL.

Q: And the Cmax ([1]; 200 mg, amcenestrant 200 mg with palbociclib, steady state Day 21, N=8, read-out: Cmax [geometric mean])?
A: Its Cmax is 1940 ng/mL.

Q: What about the AUC(0-t) ([1]; 400 mg, amcenestrant 400 mg monotherapy, steady state, N=13, read-out: AUC0-24h (arithmetic mean) (converted)) of the same compound?
A: The AUC(0-t) was 43200 ng·h/mL.

Q: And the AUC(0-t) ([1]; 400 mg, amcenestrant 400 mg monotherapy, steady state, N=13, read-out: AUC0-24h [geometric mean])?
A: Its AUC(0-t) is 40400 ng·h/mL.

Q: And the Cmax ([1]; 400 mg, amcenestrant 400 mg monotherapy, steady state, N=13, read-out: Cmax (arithmetic mean))?
A: The Cmax was 4380 ng/mL.

Q: What about the Cmax ([1]; 400 mg, amcenestrant 400 mg monotherapy, steady state, N=13, read-out: Cmax [geometric mean]) of the same compound?
A: Its Cmax is 4220 ng/mL.

Q: What about the concentration at 0 h ([1]; 400 mg, amcenestrant 400 mg monotherapy, steady state, N=13) of the same compound?
A: The concentration at 0 h was 630 ng/mL.

Q: And the Tmax ([1]; 400 mg)?
A: The Tmax was 3 h.

Q: Which AUC(0-t) [2] does the source give for `CC(=O)c1c(C)c2cnc(Nc3ccc(N4CCNCC4)cn3)nc2n(C2CCCC2)c1=O` [Palbociclib, 6-acetyl-8-cyclopentyl-5-methyl-2-{[5-(piperazin-1-yl)pyridin-2-yl]amino}pyrido[2,3-d]pyrimidin-7(8H)-one] here?
A: Its AUC(0-t) is 1970 ng·h/mL.

Q: What about the “decrease of exposure when combined with a moderate CYP3A inducer (modafinil)” value ([3]; Ibrance U.S. label) of the same compound?
A: The value was 32%.

Q: What about the “Cmax, arithmetic mean (CV %)” value ([3]; study A5481001, palbociclib monotherapy, steady state, N=4) of the same compound?
A: The value was 97.4 (41%) ng/mL.

Q: And the “Cmax, geometric mean (CV %)” value ([3]; study A5481003, palbociclib monotherapy, steady state, N=12)?
A: Its value is 116 (28%) ng/mL.

Q: And the “Cmax, geometric mean (CV %)” value ([3]; study A5481008, palbociclib with letrozole, steady state, N=41)?
A: Its value is 110 (35%) ng/mL.

Q: And the solubility ([4]; Above pH 4)?
A: The solubility was “reduces significantly”.

Q: What about the solubility ([4]; At or below pH 4) of the same compound?
A: Its solubility is “high-solubility compound”.

Q: What about the “neutrophil count decrease, any grade” value [5] of the same compound?
A: The value was 95.2%.

Reference: US20240173293A1 (Sanofi, priority 2021, published 2024)
